{
  "source": "patent US20020159981A1",
  "about": "“Methods of controlling proliferation and differentiation of stem and progenitor cells” (Gamida-Cell Ltd., priority 1999, published 2002)",
  "key": {"Cord blood-derived cells": {"system": "Cord blood-derived cells", "assay": "Preservation of stem cells: storage and separation with TEPA, then long-term culture", "format": "cell-based", "details": "cells stored 24 hours at 4° C. and separated with 10 μM TEPA; without TEPA 5 weeks", "description": "Cord blood-derived cells were collected and stored (unseparated) for 24 hours, at 4° C., either in the presence or absence of 10 μM TEPA. CD34^+ cells were then separated using either 10 μM TEPA-PBS buffer or TEPA free PBS buffer, respectively. Then, cells were grown in long-term cultures in the presence of 10 μM TEPA."}, "embryonal stem cells": {"system": "embryonal stem cells", "assay": "Embryonal stem cell culture: differentiation and proliferation", "format": "cell-based", "description": "Thus, embryonal stem cells were cultured for 3-4 days essentially as described in (66), in the presence of LIF (20-100 ng/ml) or TEPA (10-20 μM) and their differentiation compared to non-treated control cells."}, "NOD/SCID mice": {"system": "NOD/SCID mice", "assay": "Engraftment of SCID mice by ex-vivo expanded human hematopoietic cells", "format": "in vivo", "details": "for Engraftment Colonies: 2 weeks ex-vivo, TEPA + Cytokines", "description": "Engraftment of SCID mice by ex-vivo expanded human hematopoietic cells: Cord blood purified CD34^+ cells either fresh or following 2 or 4 weeks of ex-vivo culture (plus or minus TEPA) were injected into NOD/SCID mice essentially as described in (56). After 4 weeks, the mice were sacrificed and their femora and tibias were excised and the bone marrow flushed with a syringe fitted with a 25 gauge needle. A single cell suspension was prepared, the cells were washed and an aliquot counted with Trypan blue. In order to quantitate engrafted cells of human origin, cells were stained with FITC-conjugated anti CD45 antibodies and PE-conjugated either anti CD34, CD19 or CD33 antibodies. Anti CD45 antibodies recognize human, but not mouse, cells, and thus, indicates the human origin of the cells. The proliferation and differentiation potential of the engrafted cells was assayed by cloning bone marrow cells in semi-solid medium under conditions that allow specifically growth of human derived colonies essentially as described in (56)."}},
  "data": [
    {"compound": "NCCNCCNCCNCCN", "note": "[TEPA, tetraethylenepentamine]", "values": [
      {"measurement": "time cultures expanded", "setting": "Cord blood-derived cells", "result": 8, "unit": "weeks"},
      {"measurement": "maintaining the undifferentiative phenotype of embryonal stem cells", "setting": "embryonal stem cells", "result": "can replace LIF"},
      {"measurement": "Engraftment Colonies", "setting": "NOD/SCID mice; CB 2 10% FCS (first listed)", "result": "330 per 2 × 10^5 SCID BM cells"},
      {"measurement": "Engraftment Colonies", "setting": "NOD/SCID mice; CB 3 10% FCS", "result": "100 per 2 × 10^5 SCID BM cells"},
      {"measurement": "Engraftment Colonies", "setting": "NOD/SCID mice; CB 6 1% FCS", "result": "350 per 2 × 10^5 SCID BM cells"},
      {"measurement": "Engraftment Colonies", "setting": "NOD/SCID mice; CB 6 10% FCS", "result": "420 per 2 × 10^5 SCID BM cells"},
      {"measurement": "cord blood samples that succeeded to engraft the animals", "setting": "NOD/SCID mice; of 6 samples expanded ex-vivo, without TEPA 2 out of 6", "result": 6}
    ]}
  ]
}
